From US7566712B2, “Biaryl piperazinyl-pyridine analogues” (Neurogen Corporation, priority 2003, dated 2009)
pIC50: −log10 of the molar value.

Target: T1, human capsaicin receptor (Homo sapiens, UniProt Q8NER1)
T1 construct: pBK-CMV expression construct encoding the full length human capsaicin receptor; expressed in transfected cells
Assay: Calcium mobilization assay, determination of antagonist activity (Example 6)
Format: cell-based
Details: determined as described in Example 6 (calcium mobilization, antagonist activity); Table II
Summary of the method: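 Antagonism measured as inhibition of capsaicin-evoked (final concentration = EC50, from an 8-point 1 nM–3 μM curve) Fluo-3 calcium signal in stable hVR1-HEK293 cells. Test compounds at 1–5 μM final, 0.5–6 h dark preincubation at room temperature. IC50 = concentration giving 50% reduction versus agonist-only response.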

T1 sequence (Q8NER1 whole entry): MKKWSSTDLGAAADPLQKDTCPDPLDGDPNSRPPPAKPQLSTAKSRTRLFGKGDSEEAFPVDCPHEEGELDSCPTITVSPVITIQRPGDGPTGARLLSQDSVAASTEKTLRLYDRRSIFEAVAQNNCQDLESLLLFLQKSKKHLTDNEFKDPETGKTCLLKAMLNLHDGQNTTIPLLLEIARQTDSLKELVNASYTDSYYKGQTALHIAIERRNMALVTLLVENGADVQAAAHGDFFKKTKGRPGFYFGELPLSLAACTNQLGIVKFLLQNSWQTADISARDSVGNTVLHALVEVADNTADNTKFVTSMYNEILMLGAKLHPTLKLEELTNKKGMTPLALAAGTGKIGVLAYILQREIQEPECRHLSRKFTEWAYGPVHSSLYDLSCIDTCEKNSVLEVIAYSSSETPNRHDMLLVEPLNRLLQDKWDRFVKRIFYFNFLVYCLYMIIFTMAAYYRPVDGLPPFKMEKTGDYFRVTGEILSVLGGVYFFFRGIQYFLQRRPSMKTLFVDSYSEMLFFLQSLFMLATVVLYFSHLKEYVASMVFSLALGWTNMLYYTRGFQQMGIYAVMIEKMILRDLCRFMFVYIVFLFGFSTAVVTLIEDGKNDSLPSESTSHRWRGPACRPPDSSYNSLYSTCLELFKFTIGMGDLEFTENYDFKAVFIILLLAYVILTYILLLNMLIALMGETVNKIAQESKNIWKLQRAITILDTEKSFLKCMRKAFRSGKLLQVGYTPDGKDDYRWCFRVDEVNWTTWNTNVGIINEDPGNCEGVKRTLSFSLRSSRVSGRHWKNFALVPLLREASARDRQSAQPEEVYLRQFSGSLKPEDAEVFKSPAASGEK

## CC(C)c1nccn1-c1nc(-c2ccc(F)c(Cl)c2)cc(N2CCN(c3ncccc3C(F)(F)F)CC2)n1 [Example 651, 4-(3-chloro-4-fluorophenyl)-2-(2-isopropyl-1H-imidazo-1-yl)-6-{4-[3-(trifluoromethyl)pyridin-2-yl]piperazin-1-yl}pyrimidine]
  pIC50: ≥ 6.00

## CN(C)C(=O)CN1CCN(c2nc(-c3ccc(F)c(Cl)c3)cc(N3CCN(c4ncccc4C(F)(F)F)CC3)n2)CC1 [Example 652, 2-[4-(4-(3-chloro-4-fluorophenyl)-6-{4-[3-(trifluoromethyl)pyridin-2 yl]piperazin-1-yl}pyrimidin-2-yl)piperazin-1-yl]-N,N-dimethylacetamide]
  pIC50: ≥ 6.00

## CNC(=O)C1CCN(c2nc(-c3ccc(F)c(Cl)c3)cc(N3CCN(c4ncccc4C(F)(F)F)CC3)n2)CC1 [Example 653, 1-(4-(3-chloro-4-fluorophenyl)-6-{4-[3-(trifluoromethyl)pyridin-2-yl]piperazin-1-yl}pyrimidin-2-yl)-N-methylpiperidine-4-carboxamide]
  pIC50: ≥ 6.00

## O=C1CN(c2nc(-c3ccc(F)c(Cl)c3)cc(N3CCN(c4ncccc4C(F)(F)F)CC3)n2)CCN1 [Example 654, 4-(4-(3-chloro-4-fluorophenyl)-6-{4-[3-(trifluoromethyl)pyridin-2-yl]piperazin-1-yl}pyrimidin-2-yl)piperazin-2-one]
  pIC50: ≥ 6.00

## CS(=O)(=O)C1CCN(c2nc(-c3ccc(F)c(Cl)c3)cc(N3CCN(c4ncccc4C(F)(F)F)CC3)n2)CC1 [Example 655, 4-(3-chloro-4-fluorophenyl)-2-[4-(methylsulfonyl)piperidin-1-yl]-6-{4-[3-(trifluoromethyl)pyridin-2-yl]piperazin-1-yl}pyrimidine]
  pIC50: ≥ 6.00

## Fc1ccc(-c2cc(N3CCN(c4ncccc4C(F)(F)F)CC3)nc(-c3ncc[nH]3)n2)cc1Cl [Example 656, 4-(3-chloro-4-fluorophenyl)-2-(1H-imidazol-2-yl)-6-{4-[3-(trifluoromethyl)pyridin-2-yl]piperazin-1-yl}pyrimidine]
  pIC50: ≥ 6.00

## CC(=N)N1CCN(c2nc(-c3ccc(F)c(C)c3)cc(N3CCN(c4ncccc4C(F)(F)F)CC3)n2)CC1 [Example 657, 1-[4-(4-(4-fluoro-3-methylphenyl)-6-{4-[3-(trifluoromethyl)pyridin-2-yl]piperazin-1-yl}pyrimidin-2-yl)piperazin-1-yl]ethanimine]
  pIC50: ≥ 6.00

## CCC(CC)Oc1nc(-c2ccc(F)c(Cl)c2)cc(N2CCN(c3ncccc3C(F)(F)F)CC2)n1 [Example 658, 4-(3-chloro-4-fluorophenyl)-2-(1-ethylpropoxy)-6-{4-[3-(trifluoromethyl)pyridin-2-yl]piperazin-1-yl}pyrimidine]
  pIC50: ≥ 6.00

## O=C1CN(c2cc(-c3ccc(F)c(Cl)c3)nc(N3CCOCC3)n2)CCN1c1ccccn1 [Example 659, 4-[6-(3-chloro-4-fluorophenyl)-2-morpholin-4-ylpyrimidin-4-yl]-1-pyridin-2-ylpiperazin-2-one]
  pIC50: ≥ 6.00

## CC(C)N1CC=C(c2nc(-c3ccc(F)c(Cl)c3)cc(N3CCN(c4ncccc4C(F)(F)F)CC3)n2)CC1 [Example 660, 4-(3-chloro-4-fluorophenyl)-2-(1-isopropyl-1,2,3,6-tetrahydropyridin-4-yl)-6-{4-[3-(trifluoromethyl)pyridin-2-yl]piperazin-1-yl}pyrimidine]
  pIC50: ≥ 6.00

## Cc1cccnc1N1CCN(c2cc(-c3ccc(F)c(Cl)c3)nc(N3CCOCC3)n2)CC1=O [Example 661, 4-[6-(3-chloro-4-fluorophenyl)-2-morpholin-4-ylpyrimidin-4-yl]-1-(3-methylpyridin-2-yl)piperazin-2-one]
  pIC50: ≥ 6.00

## Cn1ccnc1-c1nc(-c2ccc(F)c(Cl)c2)cc(N2CCN(c3ncccc3C(F)(F)F)CC2)n1 [Example 662, 4-(3-chloro-4-fluorophenyl)-2-(1-methyl-1H-imidazol-2-yl)-6-{4-[3-(trifluoromethyl)pyridin-2-yl]piperazin-1-yl}pyrimidine]
  pIC50: ≥ 6.00

## CC(=N)N1CCN(c2nc(-c3ccc(F)c(Cl)c3)cc(N3CCN(c4ncccc4C(F)(F)F)CC3)n2)CC1 [Example 663, 1-[4-(4-(3-chloro-4-fluorophenyl)-6-{4-[3-(trifluoromethyl)pyridin-2-yl]piperazin-1-yl}pyrimidin-2-yl)piperazin-1-yl]ethanimine]
  pIC50: ≥ 6.00

## Fc1ccc(-c2cc(N3CCN(c4ncccc4C(F)(F)F)CC3)nc(N3CCC[C@H]3CN3CCCC3)n2)cc1Cl [Example 664, 4-(3-chloro-4-fluorophenyl)-2-[(2S)-2-(pyrrolidin-1-ylmethyl)pyrrolidin-1-yl]-6-{4-[3-(trifluoromethyl)pyridin-2-yl]piperazin-1-yl}pyrimidine]
  pIC50: ≥ 6.00

## Fc1ccc(-c2cc(N3CCN(c4ncccc4C(F)(F)F)CC3)nc(N3CCC(CCN4CCCC4)CC3)n2)cc1Cl [Example 665, 4-(3-chloro-4-fluorophenyl)-2-[4-(2-pyrrolidin-1-ylethyl)piperidin-1-yl]-6-{4-[3-(trifluoromethyl)pyridin-2-yl]piperazin-1-yl}pyrimidine]
  pIC50: ≥ 6.00

## Fc1ccc(-c2cc(N3CCN(c4ncccc4C(F)(F)F)CC3)nc(N3CCC(N4CCCC4)CC3)n2)cc1Cl [Example 666, 4-(3-chloro-4-fluorophenyl)-2-(4-pyrrolidin-1-ylpiperidin-1-yl)-6-{4-[3-(trifluoromethyl)pyridin-2-yl]piperazin-1-yl}pyrimidine]
  pIC50: ≥ 6.00

## CCN1CCN(c2nc(-c3ccc(F)c(C)c3)cc(N3CCN(c4ncccc4C(F)(F)F)CC3)n2)CC1 [Example 667, 2-(4-ethylpiperazin-1-yl)-4-(4-fluoro-3-methylphenyl)-6-{4-[3-(trifluoromethyl)pyridin-2-yl]piperazin-1-yl}pyrimidine]
  pIC50: ≥ 6.00

## O=C1CCCN1c1nc(-c2ccc(F)c(Cl)c2)cc(N2CCN(c3ncccc3C(F)(F)F)CC2)n1 [Example 668, 1-(4-(3-chloro-4-fluorophenyl)-6-{4-[3-(trifluoromethyl)pyridin-2-yl]piperazin-1-yl}pyrimidin-2-yl)pyrrolidin-2-one]
  pIC50: ≥ 6.00

## CC1CCC(C)N1c1nc(-c2ccc(F)c(Cl)c2)cc(N2CCN(c3ncccc3C(F)(F)F)CC2)n1 (stereo not shown) [Example 669, 4-(3-chloro-4-fluorophenyl)-2-(2,5-dimethylpyrrolidin-1-yl)-6-{4-[3-(trifluoromethyl)pyridin-2-yl]piperazin-1-yl}pyrimidine]
  pIC50: ≥ 6.00

## [O-][n+]1ccc(-c2nc(-c3ccc(F)c(Cl)c3)cc(N3CCN(c4ncccc4C(F)(F)F)CC3)n2)cc1 [Example 670]
  pIC50: ≥ 6.00

## CC(=O)c1nc(-c2ccc(F)c(Cl)c2)cc(N2CCN(c3ncccc3C(F)(F)F)CC2)n1 [Example 671, 1-(4-(3-chloro-4-fluorophenyl)-6-{4-[3-(trifluoromethyl)pyridin-2-yl]piperazin-1-yl}pyrimidin-2-yl)ethanone]
  pIC50: ≥ 6.00

## CC(=O)c1nc(-c2ccc(F)c(C)c2)cc(N2CCN(c3ncccc3C(F)(F)F)CC2)n1 [Example 672, 1-(4-(4-fluoro-3-methylphenyl)-6-{4-[3-(trifluoromethyl)pyridin-2-yl]piperazin-1-yl}pyrimidin-2-yl)ethanone]
  pIC50: ≥ 6.00

## Fc1ccc(-c2cc(N3CCN(c4ncccc4C(F)(F)F)CC3)nc(N3CCN(c4ncccc4C(F)(F)F)CC3)n2)cc1Cl [Example 673, 4-(3-chloro-4-fluorophenyl)-2,6-bis{4-[3-(trifluoromethyl)pyridin-2-yl]piperazin-1-yl}pyrimidine]
  pIC50: ≥ 6.00

## Cc1cc(-c2cc(N3CCN(c4ncccc4C(F)(F)F)CC3)nc(N3CCCC3)n2)ccc1F [Example 674, 4-(4-fluoro-3-methylphenyl)-2-pyrrolidin-1-yl-6-{4-[3-(trifluoromethyl)pyridin-2-yl]piperazin-1-yl}pyrimidine]
  pIC50: ≥ 6.00

## Cc1cc(-c2cc(N3CCN(c4ncccc4C(F)(F)F)CC3)nc(N3CCCCC3)n2)ccc1F [Example 675, 4-(4-fluoro-3-methylphenyl)-2-piperidin-1-yl-6-{4-[3-(trifluoromethyl)pyridin-2-yl]piperazin-1-yl}pyrimidine]
  pIC50: ≥ 6.00

## Cc1cc(-c2cc(N3CCN(c4ncccc4C(F)(F)F)CC3)nc(N3CCCC3C)n2)ccc1F (stereo not shown) [Example 676, 4-(4-fluoro-3-methylphenyl)-2-(2-methylpyrrolidin-1-yl)-6-{4-[3-(trifluoromethyl)pyridin-2-yl]piperazin-1-yl}pyrimidine]
  pIC50: ≥ 6.00

## Cc1cc(-c2cc(N3CCN(c4ncccc4C(F)(F)F)CC3)nc(N3C(C)CCC3C)n2)ccc1F (stereo not shown) [Example 677, 2-(2,5-dimethylpyrrolidin-1-yl)-4-(4-fluoro-3-methylphenyl)-6-{4-[3-(trifluoromethyl)pyridin-2-yl]piperazin-1-yl}pyrimidine]
  pIC50: ≥ 6.00

## Cc1cc(-c2cc(N3CCN(c4ncccc4C(F)(F)F)CC3)nc(N(CCO)CCO)n2)ccc1F [Example 678]
  pIC50: ≥ 6.00

## CC(=O)N(C)c1nc(-c2ccc(F)c(Cl)c2)cc(N2CCN(c3ncccc3C(F)(F)F)CC2)n1 [Example 679, N-(4-(3-chloro-4-fluorophenyl)-6-{4-[3-(trifluoromethyl)pyridin-2-yl]piperazin-1-yl}pyrimidin-2-yl)-N-methylacetamide]
  pIC50: ≥ 6.00

## O=C1CCC(=O)N1c1nc(-c2ccc(F)c(Cl)c2)cc(N2CCN(c3ncccc3C(F)(F)F)CC2)n1 [Example 680, 1-(4-(3-chloro-4-fluorophenyl)-6-{4-[3-(trifluoromethyl)pyridin-2-yl]piperazin-1-yl}pyrimidin-2-yl)pyrrolidine-2,5-dione]
  pIC50: ≥ 6.00

## Cc1cc(-c2cc(N3CCN(c4ncccc4C(F)(F)F)CC3)nc(C(C)N(C)C)n2)ccc1F (stereo not shown) [Example 681, 1-(4-(4-fluoro-3-methylphenyl)-6-{4-[3-(trifluoromethyl)pyridin-2-yl]piperazin-1-yl}pyrimidin-2-yl)-N,N-dimethylethanamine]
  pIC50: ≥ 6.00
